Measurements taken from US20250297300A1, “DETECTION, STAGING, MONITORING AND TREATING A DISEASE OR A CONDITION” (SUNBIRD BIO, INC., priority 2021, published 2025).
Primed or numbered codes have the meaning given here. Where no end group is shown, it is not given here. The star is where a group is joined. 5FAM = O=C1OC2(c3ccc(O)cc3Oc3cc(O)ccc32)c2ccc(C(=O)*)cc21; K(CPQ2) = lysine carrying the CPQ2 quencher; FAM = fluorescent reporter; PEG2′ = not defined here

Key:
[1] = test system: proteases in plasma sensed by Probe #102 (cathepsin L); test: Inhibitor profiling of Probe #102 cleavage in NASH and healthy plasma; type: biochemical, mice; conditions: for effect of inhibitor on signal for NASH or healthy samples: Probe #102
Protocol: For this experiment, all plasma samples were prepared individually and diluted 1/10e in PBS with inhibitor added directly to the samples. Inhibitor was prepared at 15× concentration to final. Substrates were diluted in DI water at 18 uM, such that the final concentration on the plate would be 6 uM. All samples were prepared such that their last dilution on the plate would not affect the desired final concentration. 10 ul of each individual sample was pipetted into their corresponding wells, and the plate was then spun down in the centrifuge at 1500 RPM for 30 seconds to coat the bottom of each well with the sample. 5 ul of the 18 uM substrate solution was pipetted into each well being used on a 384 well plate, and then the plate was spun down in the centrifuge at 1500 rpm for 30 seconds. The plate was placed immediately in the plate reader at 37° C. for a 30-minute-long fluorescence kinetic read at 485/535 extended gain.
To assess the proteolytic cleavage pattern of Probe #102, samples were tested using a pool of broad inhibitors for serine, cysteine, threonine, MMP and aspartic protease family members (broad inhibitor) to assess general protease activity, AEBSF for serine proteases, E64 for cysteine proteases, CTSi for broad cathepsin inhibition of cathepsins L,S,K and B, or specific inhibitors for cathepsin K (L00625), for cathepsin L (SID) or cathepsin B (CA074).

[2] = cited from earlier work
[3] = test system: carboxylesterase 1, phospholipase A2 and lipoprotein lipase; test: Spiked recombinant enzymes in human plasma with resorufin oleate as substrate; type: biochemical
[4] = test system: caspase activity in hepatitis; test: Ex vivo FRET probe cleavage in plasma of Jo2 fulminant hepatitis mice; type: biochemical; conditions: plasma 3 hours after Jo2 injection
Protocol: Fulminant hepatitis is induced after injection intraperitoneal of monoclonal antibody anti-CD95 (Jo2, BD biosciences, 4 ug/animal), and mouse plasma samples were collected 3 hours after Jo2 injection.

COVID-related proteases [5] = test: Ex vivo FRET probe cleavage in COVID vs healthy K2EDTA and Lithium Heparin plasma; type: biochemical; conditions: K2EDTA and Lithium Heparin plasma sets
[6] = test system: cathepsin and/or MMP protease activities; test: Ex vivo FRET probe cleavage in plasma: NASH progression, regression, healthy mice; type: biochemical; conditions: K2EDTA plasma at 20 weeks
Description: Plasma samples were collected from all animals at 20 weeks.
The probes showing the most differentiation in NASH were linked to cathepsin and/or MMP protease activities.

NASH-related proteases = test: Ex vivo FRET probe cleavage in K2EDTA plasma of NASH (CDAHFD) vs healthy (CD) mice; type: biochemical; conditions: n=10 and pooled
Protocol: All animals were used in accordance with animal care guidelines. Plasma was obtained from these blood samples by centrifugation at 3,500 RPM for 20 min at 4° C. The plasma was stored at −80° C. until it was needed for experimental purposes.
Samples were mixed with protease substrates and quenchers/reporters in 96-well plates. The 96-well plates were read on a Biotech Synergy H1, using 465,535 excitation/emission settings.
A single plasma sample was contacted with the probes for each predetermined protease to provide a multiplex assessment of protease activity in the sample.

COVID-related proteases [7] = test: Ex vivo FRET probe cleavage in COVID positive vs negative swab samples; type: biochemical
Granzyme B = target: T1, Granzyme B (Homo sapiens, UniProt P10144); test: Inhibition experiments on Probe #647 signal in COVID swab samples; type: biochemical; conditions: healthy vs COVID samples, FIG. 39
T1 construct: from tissue; host or cells: COVID swab samples
T1 sequence (P10144 21-247): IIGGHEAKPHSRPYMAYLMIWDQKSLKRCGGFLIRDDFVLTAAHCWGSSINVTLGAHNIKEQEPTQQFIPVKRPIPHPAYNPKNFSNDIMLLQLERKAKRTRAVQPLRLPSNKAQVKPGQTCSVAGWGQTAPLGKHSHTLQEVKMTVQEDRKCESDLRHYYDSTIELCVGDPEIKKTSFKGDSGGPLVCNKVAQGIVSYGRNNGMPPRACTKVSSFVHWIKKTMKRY

NCCc1ccc(S(=O)(=O)F)cc1 [AEBSF]
decrease of RFU signal by inhibitor, NASH ([1]; NASH plasma diluted 1/10 in PBS, Probe #102 6 uM): 65%
decrease of RFU signal by inhibitor, healthy ([1]; healthy plasma diluted 1/10 in PBS, Probe #102 6 uM): 60%

CCCNC(=O)[C@H]1O[C@@H]1C(=O)N[C@H](C(=O)N1CCC[C@H]1C(=O)O)[C@@H](C)CC [CA074]
effect of inhibitor on signal for NASH or healthy samples [1]: did not significantly decrease signal

O=c1[nH]c(-c2ccccc2O)nc2ccccc12 [HPQ, 2-(2″-hydroxyphenyl)-4(3H)-quinazolinone]
solubility in water [2]: strictly insoluble in water

CC(C)C[C@H](NC(=O)[C@H]1O[C@@H]1C(=O)O)C(=O)NCCCCN=C(N)N [Probe E64, E64]
effect of inhibitor on signal for NASH or healthy samples [1]: decreased NASH signal significantly

CN1CCN(c2nc(-c3ccc(C(=O)NC4(C(=O)NCC#N)CCCCC4)cc3)cs2)CC1 [Probe L006235]
effect of inhibitor on signal for NASH or healthy samples [1]: did not significantly decrease signal

CCCC(=O)O [butyrate]
suitability as substrate for enzyme detection [3]: promising for detection of broad range of enzymes

Probe #8: Caspase centric probe (GVDVADGK; not fully specified; 5-FAM, CPQ2 quencher, PEG2, D-Lys-D-Lys-GC)
differentiation between healthy and Jo2 samples [4]: show contrast that is specific and sensitive to the Jo2 model

Probe #12: Caspase centric probe (GDEVDGK; not fully specified; 5-FAM, CPQ2 quencher, PEG2, D-Lys-D-Lys-GC)
differentiation between healthy and Jo2 samples [4]: show contrast that is specific and sensitive to the Jo2 model

Probe #18: a Neutrophil elastase substrate (GAAPVGK; also: 5-FAM, CPQ2 quencher, PEG2-kk-GC, places not given here)
differential cleavage between COVID and healthy samples (COVID-related proteases [5]): demonstrated contrast in both sets

Probe #84: a Furin substrate (GRVKRGLAGK; also: 5-FAM, CPQ2 quencher, PEG2-kk-GC, places not given here)
differential cleavage between COVID and healthy samples (COVID-related proteases [5]): demonstrated contrast in both sets

Probe #96: FRET peptide probe of Table 1 ({FAM}-GRPLALWESQG-{K(CPQ2)-PEG2′-dK-Gly-Cys})
differentiation among healthy, regression and NASH samples [6]: can differentiate

Probe #102: a CTSL sensing probe; FRET peptide probe with fluorescent reporter and quencher ({FAM}-GKPILFFRLKG-{K(CPQ2)-PEG2′-dK-dK-Gly-Cys})
protease to whose activity the probe responds ([1]; from inhibitor experiments, FIG. 30): specifically responds to the activity of cathepsin L (CTSL)
differentiation among healthy, regression and NASH samples [6]: can differentiate
attribution of measured rate of fluorescence increase (NASH-related proteases): can be ascribed to protease activity and to NASH disease

Probe #428: FRET peptide probe of Table 1 ({FAM}-GDRRKKLTQG-{K(CPQ2)-PEG2′-dK-dK-Gly-Cys})
differentiation among healthy, regression and NASH samples [6]: can differentiate

Probe #462: a MMP8 substrate (GKKAKRNALG; also: FAM, K(CPQ2), PEG2, D-Lys-D-Lys-GC, places not given here)
differential cleavage between COVID and healthy samples (COVID-related proteases [5]): demonstrated contrast in both sets

Probe #492: FRET peptide probe of Table 1 ({FAM}-GQRANSIRVTWG-{K(CPQ2)-PEG2′-dK-dK-Gly-Cys})
differentiation among healthy, regression and NASH samples [6]: can differentiate
attribution of measured rate of fluorescence increase (NASH-related proteases): can be ascribed to protease activity and to NASH disease

Probe #520: FRET peptide probe of Table 1 (5FAM-GKPISLISSG-{K(CPQ2)-PEG2′-Gly-Cys})
differentiation among healthy, regression and NASH samples [6]: can differentiate

Probe #647: Caspase centric probe; signal measures the activity of protease Granzyme B (GAIEPDSGG; also: 5FAM, Lys(CPQ2), PEG2, D-Lys-D-Lys, GC-NH2, places not given here)
number of active samples, COVID+ (COVID-related proteases [7]; adjusted RFU across timepoints): 7 samples
number of active samples, COVID- (COVID-related proteases [7]; adjusted RFU across timepoints): 1 samples
differentiation between COVID+ and COVID- samples (COVID-related proteases [7]; swabs in saline): key differentiator
differentiation between healthy and Jo2 samples [4]: show contrast that is specific and sensitive to the Jo2 model
differentiation among healthy, regression and NASH samples [6]: can differentiate
protease whose activity the probe signal measures (Granzyme B): measures the activity of protease Granzyme B

resorufin oleate
suitability as substrate for enzyme detection [3]: promising for detection of broad range of enzymes
